From patent US20240065261A1, “PENETRATING CRYOPROTECTION AGENTS AND METHODS OF MAKING AND USING SAME” (The Research Foundation for The State University of New York, priority 2020, published 2024)
Values joined by “and” are separate entries in the source; they are usually repeats but may differ in a detail not shown here. Equal entries are not always repeated.

How the values were obtained:
3T3 cells [1] = assay: Cryopreservation, post-thaw recovery rate, Example 3; format: cell-based; settings: frozen −80° C. in medium with 400 mM trehalose
Protocol: Cryopreservation: The cryopreservation effects of EGL-3Pro and EGL-3Phe were tested on 3T3 cells. The cells were incubated with 5 mM or 10 mM EGL-3Pro or 0.5 mM EGL-3Phe or medium only (two control groups) for 72 hours. After incubation, the cells were detached by treating […] pelleted by centrifuging (200×g). The cells were then resuspended in medium with 400 mM trehalose or 5% DMSO (for control 2 group) in cryovials and a small portion of cell suspension were used for counting pre-freeze cell number. The vials were directly put in −80° C. freezer and stored for at least 3 days. The cells were thawed in 37° C. water bath until ice melt, and resuspended in 10 mL fresh medium and pelleted by centrifuging (200×g). The cells were then resuspended in 1 mL fresh medium and counted by cell counter. The recovery rate was obtained by dividing post-thaw lived cell number by pre-freeze lived cell number.

Water solubility = format: physicochemical; settings: pH 7.4, aqueous buffer
3T3 cells [2] = assay: Cytotoxicity by CCK-8 kit, Example 3; format: cell-based; settings: 48 hours
Protocol: Cytotoxicity: Cytotoxicity of EGL-3Pro and EGL-3Phe were tested by CCK-8 kit on 3T3 cells after incubating for 48 hours at different concentrations.

NIH-3T3 cells [3] = assay: Live/dead fluorescence microscopy of post-thaw cells (calcein-AM / ethidium homodimer-1); format: cell-based; settings: 24 h post-thaw; incubated with 10 mM for 48 h, frozen in media with 400 mM trehalose (FIG. 14)
Protocol: DIC and Fluorescence images capturing. NIH/3T3 cells were treated as the same as for cryopreservation experiment and were thawed in a 37° C. water bath until ice melt. Cells in each vial were then pelleted (200×g, 5 min), re-suspended in 1 mL fresh growth medium and plated into 96 well plate and grown for 24 hours. Each well was washed with sterile PBS (100 μL). Sterile PBS (200 μL) containing 2 μM calcein-AM and 4 μM ethidium homodimer-1 (EthD-1) was then added to each well. The 96-well plate was then incubated in a CO2 incubator at 37° C. for 30 min. Fresh cells without freezing were plated at similar density in 96-well plate as comparison. DIC and fluorescence microscopy images were captured at 509 and 580 nm on Axioplan 2 fluorescent microscope (Zeiss [Carl Zeiss], Thornwood, NY) with an Axiocam MRm camera (Zeiss). Axiovision 4 software (Zeiss) was used for image acquisition. Digital images were processed with ImageJ (imagej.nih.gov/ij/).

NIH-3T3 cells [4] = assay: Post-thaw total cell recovery of cryopreserved cells (trypan blue exclusion); format: cell-based; settings: for Total recovery values compared with cells frozen in media containing 5% DMSO: incubated with 10 mM; for Post-thaw recovery (%) 0-hr / Post-thaw recovery (%) 24-hr / Post-thaw recovery (%) 48-hr: incubated with 10 mM for 48 h, frozen −80° C. 72 h in media with 400 mM trehalose, ±SEM
Protocol: The delivery of sugar alcohols into cells makes it possible to turn these molecules into intracellular CPAs. […] Total post-thaw cell recovery, defined as the ratio (%) of post-thaw live cells to the number of initially frozen live cells, which provides a more accurate measure of cryoprotective outcome than cell viability, was used to assess the cryoprotective effects of the diesters.
Systematic studies were then performed by incubating the cells (1) with each of diesters 1-4 (10 mM), (2) with unmodified sorbitol, mannitol, xylitol, or erythritol (10 mM), and (3) in medium without any of the diesters or sugar alcohols, at 37° C. for 48 h. The cells treated with diesters 1-4 and the four sugar alcohols were then transferred to freezing media consisting of DMEM, 10% FBS and 400 mM trehalose. The cells incubated with only the medium were divided into two portions, one being directly transferred to the freezing medium containing 400 mM trehalose (control 1) and the other being placed in a different freezing medium consisting of DMEM, 10% FBS and 5% DMSO but without trehalose (control 2). After being frozen at −80° C. for 72 h, the cells were thawed in a warm water bath at 37° C. until ice melted. The post-thaw cells were either immediately analyzed for their survival or were cultured in growth media (DMEM with 10% FBS) for 24 h and 48 h before being analyzed.
Incubation (for cryopreservation). NIH/3T3 cells were seeded into cell culture treated plates (100 mm) at a density of 2×10^4 cells/mL (10 mL/plate), allowed to adhere overnight and then incubated with different sample solutions (10 mL) for 48 hours at 37° C. under 5% CO2. Control cells were incubated with growth medium.
Cryopreservation. At the end of the incubation, the cells were rinsed with PBS (2 mL) and detached using 0.25% trypsin-EDTA (3 mL). The cells were pelleted (200×g, 5 min) and resuspended in growth medium with 400 mM trehalose except for the control-2 group. For control-2 group, cells were resuspended in growth medium with 5% DMSO (v/v). An aliquot of cells of each group was then removed for counting by a DeNovix Celldrop cell counter to obtain prefreeze number of viable cells. The remaining cell suspension was transferred into a 2 mL cryogenic vial. The vials were directly transferred to −80° C. freezer without controlling cooling rate and stored at −80° C. freezer for 3 days. To thaw, cryogenic vials were removed from −80° C. freezer and suspended in a 37° C. water bath until ice melt. To the contents of each vial 1 mL growth medium was added and centrifuged (200×g , 5 min). The supernatant was discarded and cell pellet was resuspended in 1 mL growth cell medium. An aliquot of cell suspension of each group was then removed for counting with a DeNovix Celldrop cell counter to obtain the number of viable cells at 0-hr post-thaw. The remaining cell suspension was split equally and resuspended into two cell culture treated plates (100 mm) with 10 mL growth medium in each plate. The plates were then maintained for either 24 hours or 48 hours at 37° C. under 5% CO2. After being cultured for either 24 hours or 48 hours, the cells were rinsed with PBS (2 mL) and detached using 0.25% trypsin-EDTA (3 mL). The cells were pelleted (200×g, 5 min) and resuspended in growth medium. The cell suspension was then analyzed by DeNovix Celldrop cell counter to obtain number of viable cells at either 24-hr or 48-hr post-thaw.
Trypan Blue Exclusion Assay. For all time points, a sample of cells was mixed 1:1 in 0.4% trypan blue and counted using a DeNovix Celldrop. Cell recovery was calculated as the ratio of viable cells to the number of cells initially frozen.

NIH-3T3 cells [5] = assay: Cell growth curve; format: cell-based; settings: 10 mM, incubated for up to 72 hrs (FIG. 17)
Protocol: Cell growth curve. NIH/3T3 cells were seeded into 6-well plates at a density of 5×10^4 cells/mL (2 mL/well), allowed to adhere overnight and then incubated with different sample solutions (2 mL) up to 72 hours at 37° C. under 5% CO2. Control cells were incubated with culture medium. After certain time incubation, cells were rinsed with PBS (1 mL), detached by 0.25% trypsin-EDTA (1 mL), pelleted (200×g, 5 min) and resuspended in PBS (1 mL). The cell number were obtained by a DeNovix Celldrop cell counter. The 0 hour was set as the time point just after overnight adhering.

NIH-3T3 cells [6] = assay: Cell size measurement after incubation with diesters; format: cell-based; settings: 10 mM, 48 h incubation (FIG. 11)
Protocol: Incubation (for cell size measurement). NIH/3T3 cells were seeded into 6-well plates at a density of 5×10^4 cells/mL (2 mL/well), allowed to adhere overnight and then incubated with different sample solutions (2 mL) for 48 hours at 37° C. under 5% CO2. Control cells were incubated with culture medium.
Cell size measurement. At the end of the incubation, the cells were rinsed with PBS (1 mL) and detached by 0.25% trypsin-EDTA (1 mL). The cells were pelleted (200×g, 5 min) and resuspended in PBS (1 mL). The average cell size of the cell suspension was then obtained with a DeNovix Celldrop cell counter. Bright field/counted image and histogram for one count were attached as an example (FIG. 19). Average cell diameter and statistical analysis were obtained from the histograms.

NIH-3T3 cells [7] = assay: Post-thaw total cell recovery of cryopreserved cells (trypan blue exclusion); format: cell-based; settings: incubated with 5 and 10 mM; frozen in media with 400 mM trehalose (FIG. 12)
NIH-3T3 cells [8] = assay: Post-thaw viability of cryopreserved NIH-3T3 cells (CCK-8), Example 1; format: cell-based; settings: Table 3, frozen −80° C. 72 hours, 400 mM trehalose, 10% DMSO set as 100%
Protocol: Cryopreservation protocol. […] Discarded 95% of the old media and added 0.5 mL new DMEM (pH=7.4) with 10% FBS and 400 mM trehalose (filtered with 0.22 μm filter) and re-suspended the cells. • Transferred the cell culture to cryo-tube and stored the tubes at −80° C. for 3 days. • Thawed the cells at 37° C. in a water bath until ice melted. • Counted the cell density in each cryo-tube with cell counter. • Re-cultured the cells in 96-well plate with fresh DMEM (PH=7.4) with 10% FBS. (while keeping cell density the approximately the same for each well). • Used CCK-8 kit to test the post-thaw viability after certain time.

[9] = incubated 36 hours at 5 mM without DMSO
[10] = incubated 36 hours at 10 mM without DMSO

SMILES	0-hour post thaw recovery (%) (3T3 cells [1]; incubated with 0.5 mM for 72 hours)	solubility (Water solubility)	Cytotoxicity (3T3 cells [2]; above 1 mM)	Cytotoxicity (3T3 cells [2]; at 0.1 mM)	Cytotoxicity (3T3 cells [2]; at 0.5 mM)	0-hour post thaw recovery (%) (3T3 cells [1]; incubated with 5 mM for 72 hours)	0-hour post thaw recovery (%) (3T3 cells [1]; incubated with 10 mM for 72 hours)	Cytotoxicity (3T3 cells [2]; up to 10 mM)	Post-thaw viability/recovery in fluorescence microscopy images (NIH-3T3 cells [3])	Total recovery values compared with cells frozen in media containing 5% DMSO (NIH-3T3 cells [4])	Post-thaw recovery (%) 0-hr (NIH-3T3 cells [4])	Post-thaw recovery (%) 24-hr (NIH-3T3 cells [4])	Post-thaw recovery (%) 48-hr (NIH-3T3 cells [4])	Growth of cells relative to control (NIH-3T3 cells [5])	Average cell diameter relative to cells incubated with only the culture medium (NIH-3T3 cells [6])	Post-thaw 0 h and 48 h total recovery rates compared with cells incubated only with the media (NIH-3T3 cells [7])	Post-thaw viability (%), 24 hours post thaw (NIH-3T3 cells [8]; [9])	Post-thaw viability (%), 48 hours post-thaw (NIH-3T3 cells [8]; [9])	Post-thaw viability (%), 24 hours post thaw (NIH-3T3 cells [8]; [10])	Post-thaw viability (%), 48 hours post-thaw (NIH-3T3 cells [8]; [10])
N[C@@H](Cc1ccccc1)C(=O)OCC(COC(=O)[C@@H](N)Cc1ccccc1)OC(=O)[C@@H](N)Cc1ccccc1 [EGL-3Phe]	66.2 ± 10.1%	≤ 2 mM	apparent cytotoxicity	no toxicity	residual cytotoxicity	–	–	–	–	–	–	–	–	–	–	–	–	–	–	–
O=C(OCC(COC(=O)[C@@H]1CCCN1)OC(=O)[C@@H]1CCCN1)[C@@H]1CCCN1 [EGL-3Pro]	–	≥ 10 mM	–	–	–	50.1 ± 6.6%	65.3 ± 7.3%	didn't show any toxicity	–	–	–	–	–	–	–	–	–	–	–	–
CCC(=O)OC[C@@H](O)[C@@H](O)[C@H](O)[C@H](O)COC(=O)CC [MannPr2]	–	–	–	–	–	–	–	–	much higher recovery than those treated with mannitol or sorbitol	the same as those seen with 5% DMSO	84% and 84.1 ± 3.3%	73.6 ± 3.2%	184% and 184.1 ± 14.2%	slightly suppressed	small but statistically significant increases	–	–	–	–	–
CCC(=O)OC[C@@H](O)[C@@H](O)[C@H](O)[C@@H](O)COC(=O)CC [SorbPr2]	–	–	–	–	–	–	–	–	much higher recovery than those treated with mannitol or sorbitol	comparable to those obtained with cells frozen in media containing 5% DMSO	72.4 ± 3.4%	65.2 ± 2.2%	153.2 ± 8.0%	slightly suppressed	small but statistically significant increases	above those of cells incubated only with the media	94.5 ± 9.1%	130.1 ± 6.8%	128.9 ± 2.5%	183.0 ± 2.9%
